Reference: US10266515B2, “Therapeutic inhibitory compounds” (LifeSci Pharmaceuticals, Inc., priority 2013, dated 2019)

Molecular target: human plasma kallikrein (Homo sapiens (Human), UniProt P03952)
Assay: In vitro enzyme inhibition of human plasma kallikrein (PFR-AMC cleavage)
Type: biochemical
Conditions: Pro-Phe-Arg-AMC substrate, 37° C., read-out: hPK IC50
Description: The ability of the compounds disclosed herein to inhibit human plasma kallikrein activity was quantified according to the procedures below.
A 10 mM solution of the test compound was made in DMSO. […] A control tube containing only DMSO is included. 16 μL of each compound test solution was combined with 384 μL of assay buffer (50 mM Tris-HCl pH 7.5, 150 mM NaCl, 0.01% Triton X-100) to yield a “4× test compound buffer stock”.
These solutions are hereby referred to as 4×hPK and 2×PFR-AMC, respectively.
50 μL was removed from this mixture and placed into duplicate wells on a Microfluor 1Black U-bottom microtiter plate (Thermo Scientific). This plate was incubated for 5 minutes at 37° C. To each well, 50 μL of pre-warmed 2×PFR-AMC was added to start the enzymatic reaction. Cleavage of PFR-AMC was monitored in a Biotek Synergy H4 reader set at 37° C. Readings are taken every 43 seconds for 1 hour. […] The IC50 is calculated using the Gen5 (Biotek Instruments).
The ability of the compounds in Table 3 to inhibit human plasma kallikrein activity was determined.

Chain of human plasma kallikrein (P03952 391-638 limits assumed): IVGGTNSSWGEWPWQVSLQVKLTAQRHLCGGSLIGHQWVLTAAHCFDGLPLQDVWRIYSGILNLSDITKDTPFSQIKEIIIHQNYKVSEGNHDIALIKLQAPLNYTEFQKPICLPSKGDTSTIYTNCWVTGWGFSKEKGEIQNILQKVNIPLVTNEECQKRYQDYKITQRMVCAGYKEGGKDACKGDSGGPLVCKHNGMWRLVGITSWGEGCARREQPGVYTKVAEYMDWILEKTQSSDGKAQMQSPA
Chain of human plasma kallikrein (P03952 20-390 partner limits assumed): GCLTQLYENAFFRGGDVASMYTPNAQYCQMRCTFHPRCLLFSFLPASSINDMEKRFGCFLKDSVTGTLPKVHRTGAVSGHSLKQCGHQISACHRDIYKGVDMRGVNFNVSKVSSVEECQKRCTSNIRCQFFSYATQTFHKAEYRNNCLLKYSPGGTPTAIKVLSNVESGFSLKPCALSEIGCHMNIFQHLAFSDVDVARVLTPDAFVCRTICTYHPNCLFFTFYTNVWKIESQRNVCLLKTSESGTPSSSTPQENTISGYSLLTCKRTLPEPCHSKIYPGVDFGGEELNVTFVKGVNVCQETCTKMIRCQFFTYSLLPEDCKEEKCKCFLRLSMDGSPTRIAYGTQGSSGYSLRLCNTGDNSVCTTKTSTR

Q: “N-((3-chloro-6-fluoro-1H-indol-5-yl)methyl)-2-((2-isocyanoquinolin-6-yl)methyl)isonicotinamide [Example 130]” was tested. Which IC50 did it give?
A: Its IC50 is less than 100 nM.
